Measured values: US7763604B2, “Methods for administration of a farnesyl dibenzodiazepinone” (Thallion Pharma Ceuticals, Inc., priority 2005, dated 2010)

Key:
[1] = population pharmacokinetic analysis, mouse (IV); type: in vivo; details: population PK
Experimental: (§1) An analysis was performed to derive allometric equations for Formula I pharmacokinetic parameters using Formula I plasma concentration-time data from three species, including mouse, rat, and monkey, and to estimate human pharmacokinetic parameters from those allometric equations.
(§2) Plasma concentrations of Formula I were obtained from mice, rats, and monkeys following intravenous injection or continuous infusion. Formula I pharmacokinetic parameters in mice, rats, and monkeys were estimated using population pharmacokinetic analysis, a function of the software program NONMEM™ (version 5). Typical population pharmacokinetic parameters for Formula I in humans were extrapolated from allometric equations that were derived from pharmacokinetic parameters estimated in the three animal species.
(§3) A two-compartment model with a first-order elimination from the central compartment adequately described Formula I plasma concentration-time profiles following intravenous bolus injection (30 mg/kg) in mice and rats, 7-day continuous infusion in rats (50 to 170 mg/kg/day), and 14-day continuous infusion in monkeys (5 to 30 mg/kg/day).

[2] = population pharmacokinetic analysis, rat (IV + CIV); type: in vivo; details: population PK
Experimental: as §1, §2, §3

[3] = pharmacokinetics and tissue levels after 30 mg/kg bolus IV, IP, SC and PO in mice; type: in vivo, female Crl: CD1 mice
Experimental: The compound of formula I was dissolved in ethanol (5%), Polysorbate 80 (15%), PEG 400 (5%) and dextrose (5%) at a final concentration of 6 mg/ml (IV, IP and SC administration). For oral administration, the compound of Formula I was solubilized in Chremophor® EL/Ethanol (50%:50%) at a final concentration of 6 mg/ml. Prior to dosing, animals (female Crl: CD1 mice; 6 weeks of age, 22-24 g) were weighed, randomly selected and assigned to the different treatment groups. The compound of Formula I was administered by the bolus intravenous (IV), bolus subcutaneous (SC), bolus intraperitoneal (IP), or oral (PO) route to the assigned animals. The dosing volume of Formula I was 5 mL per kg body weight. Animals were anesthetized prior to bleeding with 5% isoflurane. Blood was collected into microtainer tubes containing the anticoagulant K2EDTA by cardiac puncture from each of 4 animals per bleeding timepoint (2 min, 5 min, 15 min, 30 min, 1 h, 2 h, 4 h and 8 h). Following collection, the samples were centrifuged and the plasma obtained from each sample was recovered and stored frozen (at approximately −80° C.) pending analysis. At the 5 min and 30 min time points, the following organs were harvested from each animal: brain, lungs, skeletal muscle, fat tissue, kidneys, spleen, thymus and liver. Tissues were frozen (at approximately −80° C.) pending analysis. Samples were analysed by LC/MS/MS.
Plasma values of the compound of Formula I falling below the limit of quantitation (LOQ) were set to zero. […] The following pharmacokinetic parameters were calculated: area under the plasma concentration versus time curve from time zero to the last measurable concentration time point (AUCO-t), area under the plasma concentration versus time curve extrapolated to infinity (AUCinf), maximum observed plasma concentration (Cmax), time of maximum plasma concentration (tmax), apparent first-order terminal elimination rate constant (kel), apparent first-order terminal elimination half-life will be calculated as 0.693/kel (t1/2). The systemic clearance (CL) of the compound of Formula I after intravenous administration was calculated using Dose/AUCinf. Pharmacokinetic parameters were calculated using Kinetica™ 4.1.1 (InnaPhase Corporation, Philadelphia, Pa.).

[4] = toxicity of 14-day infusion in rats; type: in vivo; details: all treated and control groups, attributed to the vehicle
Experimental: Sprague-Dawley rats received an intravenous continuous infusion over 14 days of Formula I at 25 mg/kg/day, 50 mg/kg/day, or 75 mg/kg/day at a rate of 2 mL/kg/h for 14 consecutive days (same formulation as in Example 7). Blood was collected from the jugular vein in tubes containing K2 EDTA from 3 rats/sex/group at the following time points: 2, 6, and 12 hours after the start of dosing on Day 1, on Day 2 at 6 hours (approximately 30 hours after the start of dosing), on Days 6 and 10 at 6 hours, and on Day 15, 1 hour prior the end of dosing, and then at 5 min, 15 min, 30 min, 1 h, and 2 h after the end of dosing.
The toxicity was due to the vehicle and was attributed to smaller size of infusion vessels, and concurrent catheter tract infection.

[5] = acute toxicity, 24-hour CIV administration in monkeys; type: in vivo

## CC(C)=CCC/C(C)=C/CC/C(C)=C/CN1C(=O)c2cccc(O)c2Nc2c(O)cc(O)cc21 [Formula I, 10-farnesyl-4,6,8-trihydroxy-dibenzodiazepin-11-one]
[1]
  Ke: 8.466 h⁻¹
[2]
  Ke: 8.651 h⁻¹
[3]; IP bolus 30 mg/kg
  peak plasma concentration: 7.8 µM
  time to peak plasma concentration: 15 min
[3]; IV and IP bolus 30 mg/kg, 30 min time point
  tissue distribution: well distributed
[3]; PO 30 mg/kg
  drug levels after oral administration: moderate but sustained drug levels
[3]; SC bolus 30 mg/kg
  peak plasma concentration: 2.3 µM
  time to peak plasma concentration: 60 min
[3]; SC bolus 30 mg/kg, 30 min time point
  tissue levels compared with IP: significantly lower
[3]; bolus IV 30 mg/kg, plasma, mice, 30 mg/kg
  t1/2,α: 4.7 min
[3]; bolus IV 30 mg/kg, start of decline
  plasma concentration, initial: ~425 µM
[3]; intraperitoneal and subcutaneous bolus 30 mg/kg, mice
  time plasma concentration is maintained at therapeutically relevant levels: over 8 hours
[4]
  findings at the site of infusion: necrotization and inflammatory lesions at the site of infusion
[5]; 35 mg/kg
  tolerability: well tolerated
[5]; 70 mg/kg
  tolerability: well tolerated
